Like-named read-outs stand apart in the source and are kept apart here.
Assays:
[1] = format: in vivo, human; settings: observed
[2] = Physicochemical input parameters; settings: high solubility–high permeability
[3] = cited from earlier work
[4] = cited from earlier work; remark: listed apart in the source
[5] = cited from earlier work; remark: listed apart in the source
[6] = 4-mg single dose, geometric mean, observed N=7
[7] = 4-mg single dose, mean, observed N=7
[8] = 4-mg single dose, median, observed N=7
[9] = 4-mg, q.d. dosing, geometric mean, observed N=5
[10] = 4-mg, q.d. dosing, mean, observed N=5
[11] = 9-mg q.d. dosing, geometric mean, observed N=6
[12] = 9-mg q.d. dosing, mean, observed N=6
[13] = 9-mg q.d. dosing, median, observed N=6
[14] = 9-mg single dose, geometric mean, observed N=9
[15] = 9-mg single dose, mean, observed N=9
[16] = 9-mg single dose, median, observed N=9
[17] = 4-mg single dose, no inhibitor, Cohort A n=17, mean
[18] = 4-mg with 200-mg q.d. itraconazole, Cohort C, geometric mean
[19] = 4-mg with 200-mg q.d. itraconazole, Cohort C, mean
[20] = 4-mg with 400-mg q.d. fluconazole, Cohort B, geometric mean
[21] = 4-mg with 400-mg q.d. fluconazole, Cohort B, mean

COc1cc(OC)cc(N(CCNC(C)C)c2ccc3ncc(-c4cnn(C)c4)nc3c2)c1 [erdafitinib]
difference in total exposure, patients with cancer versus healthy subjects [1]: ~ 1.4 fold | Biopharmaceutics Classification System class [2]: Class 1 | AUC0–72 [3, 6]: 6022 ng·h/mL | Cmax [3, 6]: 163 ng/mL | AUC0–72 [3, 7]: 6743 ng·h/mL | Cmax [3, 7]: 182 ng/mL | AUC0–72 [3, 8]: 6360 ng·h/mL | Cmax [3, 8]: 173 ng/mL | AUCtau [3, 9]: 12,064 ng·h/ml | Cmax [3, 9]: 630 ng/mL | AUCtau [3, 10]: 13,516 ng·h/ml | Cmax [3, 10]: 675 ng/mL | Cmax ([3]; 4-mg, q.d. dosing, median, observed N=5): 569 ng/mL | AUCtau [3, 11]: 36,608 ng·h/ml | Cmax [3, 11]: 1911 ng/mL | AUCtau [3, 12]: 39,587 ng·h/ml | Cmax [3, 12]: 2018 ng/mL | AUCtau [3, 13]: 30,594 ng·h/ml | Cmax [3, 13]: 1765 ng/mL | AUC0–72 [3, 14]: 15,091 ng·h/ml | Cmax [3, 14]: 390 ng/mL | AUC0–72 [3, 15]: 17,564 ng·h/ml | Cmax [3, 15]: 431 ng/mL | AUC0–72 [3, 16]: 16,053 ng·h/ml | Cmax [3, 16]: 389 ng/mL | unchanged drug recovered in feces ([4]; over ~ 16 days): 17% | unchanged drug recovered in feces ([4]; within the first 3 days): < 5 % of the dose | AUCinf ([5]; 4-mg single dose, no inhibitor, Cohort A n=17, geometric mean): 8777 ng·h/mL | AUCinf [5, 17]: 9145 ng·h/mL | Cmax [5, 17]: 138 ng/mL | AUCinf [5, 18]: 11,785 ng·h/ml | Cmax [5, 18]: 140 ng/mL | AUCinf [5, 19]: 12,228 ng·h/ml | Cmax [5, 19]: 145 ng/mL | AUCinf [5, 20]: 13,060 ng·h/ml | Cmax [5, 20]: 162 ng/mL | AUCinf [5, 21]: 14,233 ng·h/ml | Cmax [5, 21]: 177 ng/mL

— publication PMC8452301 (CPT: Pharmacometrics & Systems Pharmacology, 2021)
